The values below come from patent US7109376B2, “Benzene and naphthylene derivatives and their use as UV screening agents” (DSM IP Assets B.V., priority 2001, dated 2006).

For series [1] the following is noted: irradiated in high dilution with a Hg-lamp 150 W (Heraeus).
The conditions of series [2]: solvent Cétiol LC (Cocoyl cyprylate caprate).
For series [3] the following is noted: solvent Crodamol DA (diisopropyladipate).

With `C=CCc1cc(C(C)(C)C)cc2nc(-c3ccc(-c4nc5cc(C(C)(C)C)cc(CC=C)c5o4)cc3)oc12` [Example 1, 1,4-bis-[2-(5-tert.-butyl-7-allyl-benzoxazol)-yl]-benzene], in series [1], the photostability entry was “photostable”. The “solubility in Cétiol LC” value in series [2] was 1.1%.

Consider `CC(C)(C)c1cc(CCC[Si](C)(C)O[Si](C)(C)C)c2oc(-c3ccc(-c4nc5cc(C(C)(C)C)cc(CCC[Si](C)(C)O[Si](C)(C)C)c5o4)cc3)nc2c1` [Example 2, 1,4-bis-[2-(5-tert.-butyl-7-{3-(1,1,3,3,3-pentamethyl-disiloxanyl)-1-propyl}-benzoxazol)-yl]-benzene], for which, in series [1], the photostability result is listed as “photostable”. In addition, in series [2], the “solubility in Cétiol LC” value worked out at 18%.

As for `CC(Cc1cccc2nc(-c3ccc(-c4nc5cccc(CC(C)C[Si](C)(C)O[Si](C)(C)C)c5o4)cc3)oc12)C[Si](C)(C)O[Si](C)(C)C` (stereo not shown) [Example 3, 1,4-bis-[2-(7-{3-(1,1,3,3,3-pentamethyl-disiloxanyl)-1-isobutyl}-benzoxazol)-yl]-benzene], the photostability entry in series [1] is reported as “photostable”. The “solubility in Crodamol DA” value in series [3] was 5.03%.

On to `CC(Cc1cc(C(C)(C)C)cc2nc(-c3ccc(-c4nc5cc(C(C)(C)C)cc(CC(C)C[Si](C)(O[Si](C)(C)C)O[Si](C)(C)C)c5o4)cc3)oc12)C[Si](C)(O[Si](C)(C)C)O[Si](C)(C)C` (stereo not shown) [Example 5, 1,4-bis-[2-(5-tert.-butyl-7-{3-(1,3,3,3-tetramethyl-1-[(tri-methyl-silyl)-oxy]-disiloxanyl)-1-isobutyl}-benzoxazol)-yl]-benzene], for which the photostability entry in series [1] was “photostable”. The “solubility in Cétiol LC” value in series [2] is 12.3%.

On to `CCCCC=CC(C)c1cc(C)cc2nc(-c3ccc(-c4nc5cc(C)cc(C(C)C=CCCCC)c5o4)cc3)oc12` (stereo not shown) [Example 6, 1,4-bis-[2-(5-methyl-7-oct-3-en-2-yl-benzoxazol)-yl]-benzene], for which the photostability result in series [1] was “photostable”. Also, the “solubility in Crodamol DA” value in series [3] is reported as 1.33%.

For `CCCCC=CC(C)c1cc(C(C)(C)C)cc2nc(-c3ccc(-c4nc5cc(C(C)(C)C)cc(C(C)C=CCCCC)c5o4)cc3)oc12` (stereo not shown) [Example 8, 1,4-bis-[2-(5-tert.-butyl-7-oct-3-en-2-yl-benzoxazol)-yl]-benzene], the “mixability with conventional cosmetic solvents” value is listed as “easily mixable”. In series [1], the photostability entry was “photostable”.

Regarding `CCCCC=CC(C)c1cccc2nc(-c3ccc(-c4nc5cccc(C(C)C=CCCCC)c5o4)cc3)oc12` (stereo not shown) [Example 9, 1,4-bis-[2-(7-oct-3-en-2-yl-benzoxazol)-yl]-benzene], the photostability result in series [1] was “photostable”. Moreover, the “solubility in Cétiol LC” value in series [2] is recorded as 1.02%.

As to `CCCCCCC(C)c1cc(C(C)(C)C)cc2nc(-c3ccc(-c4nc5cc(C(C)(C)C)cc(C(C)CCCCCC)c5o4)cc3)oc12` (stereo not shown) [Example 11, 1,4-bis-[2-(5-tert.-butyl-7-oct-2-yl-benzoxazol)-yl]-benzene], the “mixability with conventional cosmetic solvents” value is “easily mixable”. Moreover, the photostability entry in series [1] was “photostable”.
